Experimental findings from ChEMBL document CHEMBL1687777, “Membrane efflux and influx modulate both multidrug resistance and virulence of Klebsiella pneumoniae in a Caenorhabditis elegans model” (2010) are described below.

Each structure is given as a SMILES string. Converted amounts (≈) assume the structure as drawn.

For assay [1], the system named is Klebsiella pneumoniae. Description: Antibacterial activity against porin, OmpA positive Klebsiella pneumoniae KPBj1 expressing efflux system by disk agar diffusion method. The format is functional.
In assay [2] the test system is Klebsiella pneumoniae. The assay can be described thus: Antibacterial activity against porin, OmpA positive Klebsiella pneumoniae KPBj5 revertant by disk agar diffusion method. Format: functional. For orientation: In agar diffusion tests the substance spreads into inoculated agar from a disc or well.
Assay [3] concerns Klebsiella pneumoniae. The assay can be described thus: Antibacterial activity against porin deficient OmpA positive extended-spectrum beta-lactamase producing Klebsiella pneumoniae KPBj1 revertant by disk agar diffusion method. The format is functional.
For assay [4], the system named is Klebsiella pneumoniae. The assay can be described thus: Antibacterial activity against porin deficient OmpA positive Klebsiella pneumoniae KPBj5 revertant by disk agar diffusion method. Format: functional.
The subject of assay [5] is Klebsiella pneumoniae. Description: Antibacterial activity against porin deficient OmpA positive Klebsiella pneumoniae KPBj5 expressing efflux system by disk agar diffusion method. Format: functional.
For assay [6], the system named is Klebsiella pneumoniae. The assay can be described thus: Antibacterial activity against porin, OmpA positive Klebsiella pneumoniae KPBj3 revertant by disk agar diffusion method. The format is functional.
In assay [7] the test system is Klebsiella pneumoniae. The assay can be described thus: Antibacterial activity against porin, OmpA positive Klebsiella pneumoniae KPBj3 expressing efflux system by disk agar diffusion method. The format is functional.
Assay [8] relates to Klebsiella pneumoniae. Description: Antibacterial activity against porin deficient OmpA positive Klebsiella pneumoniae KPBj1 expressing efflux system by disk agar diffusion method. The format is functional.
Assay [9] relates to Klebsiella pneumoniae. The assay can be described thus: Antibacterial activity against porin, OmpA positive extended-spectrum beta-lactamase producing Klebsiella pneumoniae KPBj1 revertant by disk agar diffusion method. The format is functional.
Assay [10] deals with Klebsiella pneumoniae. The assay can be described thus: Antibacterial activity against porin, OmpA positive extended-spectrum beta-lactamase producing Klebsiella pneumoniae KPBj1 by disk agar diffusion method. The format is functional.
Assay [11] concerns Klebsiella pneumoniae. The assay can be described thus: Antibacterial activity against porin, OmpA positive Klebsiella pneumoniae ATCC 138821 by disk agar diffusion method. Format: functional.
The subject of assay [12] is Klebsiella pneumoniae. Description: Antibacterial activity against porin deficient OmpA positive Klebsiella pneumoniae KPBj3 revertant by disk agar diffusion method. Format: functional.
Assay [13] has as its system Klebsiella pneumoniae. The assay can be described thus: microbe, parasite or virus in culture. As to conditions: KPBj1.
Description: Antibacterial activity against porin deficient OmpA positive extended-spectrum beta-lactamase producing Klebsiella pneumoniae KPBj1 expressing efflux system by disk agar diffusion method
Assay [14] relates to Klebsiella pneumoniae. The assay can be described thus: Antibacterial activity against porin, OmpA positive Klebsiella pneumoniae KPBj5 expressing efflux system by disk agar diffusion method. Format: functional.
The subject of assay [15] is Klebsiella pneumoniae. The assay can be described thus: Antibacterial activity against porin deficient OmpA positive Klebsiella pneumoniae KPBj1 revertant by disk agar diffusion method. Format: functional.
Assay [16] relates to Klebsiella pneumoniae. The assay can be described thus: Antibacterial activity against porin deficient OmpA positive Klebsiella pneumoniae KPBj3 expressing efflux system by disk agar diffusion method. The format is functional.
Assay [17] deals with Klebsiella pneumoniae. Description: Antibacterial activity against porin, OmpA positive Klebsiella pneumoniae KPBj1 revertant by disk agar diffusion method. The format is functional.

On to `CCn1cc(C(=O)O)c(=O)c2ccc(C)nc21` [NALIDIXIC ACID], for which the MIC was determined as 32 µg/mL (≈ 138 µM) in the assay on Klebsiella pneumoniae [1]; 2 µg/mL (≈ 8.61 µM) with Klebsiella pneumoniae [2]; 4 µg/mL (≈ 17.2 µM) with Klebsiella pneumoniae [3]; 2 µg/mL (≈ 8.61 µM) with Klebsiella pneumoniae [4]; 8 µg/mL (≈ 34.4 µM) in the assay with Klebsiella pneumoniae [5]; 2 µg/mL (≈ 8.61 µM) with Klebsiella pneumoniae [6]. The MIC was determined as 32 µg/mL (≈ 138 µM) against Klebsiella pneumoniae [7]; 32 µg/mL (≈ 138 µM) in the assay with Klebsiella pneumoniae [8]; 4 µg/mL (≈ 17.2 µM) in the assay with Klebsiella pneumoniae [9]; 32 µg/mL (≈ 138 µM) in the assay on Klebsiella pneumoniae [10]; 4 µg/mL (≈ 17.2 µM) against Klebsiella pneumoniae [11]; 2 µg/mL (≈ 8.61 µM) in the assay with Klebsiella pneumoniae [12]. The MIC came to 32 µg/mL (≈ 138 µM) in the assay on Klebsiella pneumoniae [13]; 8 µg/mL (≈ 34.4 µM) with Klebsiella pneumoniae [14]; 2 µg/mL (≈ 8.61 µM) in the assay with Klebsiella pneumoniae [15]; 32 µg/mL (≈ 138 µM) in the assay on Klebsiella pneumoniae [16]; 2 µg/mL (≈ 8.61 µM) in the assay with Klebsiella pneumoniae [17].
`C[C@@H](O)[C@H]1C(=O)N2C(C(=O)O)=C(S[C@@H]3CN[C@H](C(=O)Nc4cccc(C(=O)O)c4)C3)[C@H](C)[C@H]12`: the MIC was 0.007 µg/mL (≈ 0.0147 µM) against Klebsiella pneumoniae [1]; 0.007 µg/mL (≈ 0.0147 µM) against Klebsiella pneumoniae [2]; 2 µg/mL (≈ 4.21 µM) against Klebsiella pneumoniae [3]; 0.25 µg/mL (≈ 0.526 µM) against Klebsiella pneumoniae [4]; 0.25 µg/mL (≈ 0.526 µM) against Klebsiella pneumoniae [5]; 0.007 µg/mL (≈ 0.0147 µM) in the assay with Klebsiella pneumoniae [6]. Besides, the MIC against Klebsiella pneumoniae [7] came to 0.007 µg/mL (≈ 0.0147 µM); with Klebsiella pneumoniae [8], 0.5 µg/mL (≈ 1.05 µM); in the assay with Klebsiella pneumoniae [9], 0.03 µg/mL (≈ 0.0631 µM); in the assay with Klebsiella pneumoniae [10], 0.125 µg/mL (≈ 0.263 µM); against Klebsiella pneumoniae [11], 0.007 µg/mL (≈ 0.0147 µM); against Klebsiella pneumoniae [12], 0.25 µg/mL (≈ 0.526 µM). Also, the MIC was found to be 4 µg/mL (≈ 8.41 µM) against Klebsiella pneumoniae [13]; 0.015 µg/mL (≈ 0.0315 µM) against Klebsiella pneumoniae [14]; 0.5 µg/mL (≈ 1.05 µM) with Klebsiella pneumoniae [15]; 0.25 µg/mL (≈ 0.526 µM) with Klebsiella pneumoniae [16]; 0.007 µg/mL (≈ 0.0147 µM) in the assay with Klebsiella pneumoniae [17].
With `CO/N=C(\C(=O)N[C@@H]1C(=O)N2C(C(=O)O)=C(COC(C)=O)CS[C@H]12)c1csc(N)n1` [CEFOTAXIME], the MIC in the assay with Klebsiella pneumoniae [1] amounted to 0.125 µg/mL (≈ 0.274 µM); against Klebsiella pneumoniae [2], 0.06 µg/mL (≈ 0.132 µM); against Klebsiella pneumoniae [3] it was 256 µg/mL (≈ 562 µM); with Klebsiella pneumoniae [4], 0.125 µg/mL (≈ 0.274 µM); in the assay on Klebsiella pneumoniae [5], 0.25 µg/mL (≈ 0.549 µM); with Klebsiella pneumoniae [6], 0.06 µg/mL (≈ 0.132 µM). Also, the MIC turned out to be 0.06 µg/mL (≈ 0.132 µM) in the assay on Klebsiella pneumoniae [7]; 0.25 µg/mL (≈ 0.549 µM) in the assay on Klebsiella pneumoniae [8]; 128 µg/mL (≈ 281 µM) against Klebsiella pneumoniae [9]; 128 µg/mL (≈ 281 µM) against Klebsiella pneumoniae [10]; 0.06 µg/mL (≈ 0.132 µM) in the assay on Klebsiella pneumoniae [11]; 0.25 µg/mL (≈ 0.549 µM) against Klebsiella pneumoniae [12]. Besides, the MIC came to 256 µg/mL (≈ 562 µM) with Klebsiella pneumoniae [13]; 0.125 µg/mL (≈ 0.274 µM) in the assay on Klebsiella pneumoniae [14]; 0.25 µg/mL (≈ 0.549 µM) in the assay with Klebsiella pneumoniae [15]; 0.25 µg/mL (≈ 0.549 µM) in the assay on Klebsiella pneumoniae [16]; 0.06 µg/mL (≈ 0.132 µM) against Klebsiella pneumoniae [17].
As for `CO[C@@]1(NC(=O)Cc2cccs2)C(=O)N2C(C(=O)O)=C(COC(N)=O)CS[C@@H]21` [CEFOXITIN], the MIC is 8 µg/mL (≈ 18.7 µM) against Klebsiella pneumoniae [1]; 2 µg/mL (≈ 4.68 µM) against Klebsiella pneumoniae [2]; 32 µg/mL (≈ 74.9 µM) in the assay on Klebsiella pneumoniae [3]; 16 µg/mL (≈ 37.4 µM) with Klebsiella pneumoniae [4]; 32 µg/mL (≈ 74.9 µM) in the assay on Klebsiella pneumoniae [5]; 2 µg/mL (≈ 4.68 µM) with Klebsiella pneumoniae [6]. Besides, the MIC stood at 4 µg/mL (≈ 9.36 µM) in the assay with Klebsiella pneumoniae [7]; 32 µg/mL (≈ 74.9 µM) with Klebsiella pneumoniae [8]; 2 µg/mL (≈ 4.68 µM) against Klebsiella pneumoniae [9]; 8 µg/mL (≈ 18.7 µM) against Klebsiella pneumoniae [10]; 2 µg/mL (≈ 4.68 µM) against Klebsiella pneumoniae [11]; 32 µg/mL (≈ 74.9 µM) against Klebsiella pneumoniae [12]. In addition, the MIC in the assay on Klebsiella pneumoniae [13] is 32 µg/mL (≈ 74.9 µM); with Klebsiella pneumoniae [14] it was 8 µg/mL (≈ 18.7 µM); in the assay on Klebsiella pneumoniae [15] it was 32 µg/mL (≈ 74.9 µM); against Klebsiella pneumoniae [16] it was 32 µg/mL (≈ 74.9 µM); in the assay with Klebsiella pneumoniae [17], 2 µg/mL (≈ 4.68 µM).
As to `C[C@H]1COc2c(N3CCN(C)CC3)c(F)cc3c(=O)c(C(=O)O)cn1c23.C[C@H]1COc2c(N3CCN(C)CC3)c(F)cc3c(=O)c(C(=O)O)cn1c23.O` [LEVOFLOXACIN], the MIC with Klebsiella pneumoniae [2] was found to be 0.06 µg/mL; with Klebsiella pneumoniae [3], 0.06 µg/mL; in the assay with Klebsiella pneumoniae [4], 0.06 µg/mL; against Klebsiella pneumoniae [6], 0.03 µg/mL; in the assay on Klebsiella pneumoniae [9], 0.03 µg/mL; in the assay with Klebsiella pneumoniae [11] it was 0.03 µg/mL. Also, the MIC against Klebsiella pneumoniae [12] came out at 0.015 µg/mL; against Klebsiella pneumoniae [15], 0.06 µg/mL; in the assay with Klebsiella pneumoniae [17] it was 0.03 µg/mL.
Turning to `O=C(N[C@H](CO)[C@H](O)c1ccc([N+](=O)[O-])cc1)C(Cl)Cl` [CHLORAMPHENICOL], the MIC against Klebsiella pneumoniae [1] came to 128 µg/mL (≈ 396 µM); against Klebsiella pneumoniae [2], 2 µg/mL (≈ 6.19 µM); in the assay with Klebsiella pneumoniae [3] it was 4 µg/mL (≈ 12.4 µM); in the assay with Klebsiella pneumoniae [4], 2 µg/mL (≈ 6.19 µM); with Klebsiella pneumoniae [5], 8 µg/mL (≈ 24.8 µM); against Klebsiella pneumoniae [6] it was 4 µg/mL (≈ 12.4 µM). In addition, the MIC against Klebsiella pneumoniae [7] came out at 128 µg/mL (≈ 396 µM); against Klebsiella pneumoniae [8], 128 µg/mL (≈ 396 µM); against Klebsiella pneumoniae [9], 2 µg/mL (≈ 6.19 µM); against Klebsiella pneumoniae [10], 128 µg/mL (≈ 396 µM); with Klebsiella pneumoniae [11] it was 2 µg/mL (≈ 6.19 µM); with Klebsiella pneumoniae [12], 4 µg/mL (≈ 12.4 µM). Moreover, the MIC against Klebsiella pneumoniae [13] is 128 µg/mL (≈ 396 µM); against Klebsiella pneumoniae [14], 8 µg/mL (≈ 24.8 µM); with Klebsiella pneumoniae [15], 4 µg/mL (≈ 12.4 µM); against Klebsiella pneumoniae [16], 128 µg/mL (≈ 396 µM); in the assay with Klebsiella pneumoniae [17], 2 µg/mL (≈ 6.19 µM).
Consider `CC(C)(O/N=C(\C(=O)N[C@@H]1C(=O)N2C(C(=O)[O-])=C(C[n+]3ccccc3)CS[C@H]12)c1csc(N)n1)C(=O)O` [CEFTAZIDIME], for which the MIC came out at 0.25 µg/mL (≈ 0.457 µM) against Klebsiella pneumoniae [1]; 0.125 µg/mL (≈ 0.229 µM) in the assay on Klebsiella pneumoniae [2]; 32 µg/mL (≈ 58.5 µM) against Klebsiella pneumoniae [3]; 0.125 µg/mL (≈ 0.229 µM) in the assay with Klebsiella pneumoniae [4]; 0.25 µg/mL (≈ 0.457 µM) against Klebsiella pneumoniae [5]; 0.125 µg/mL (≈ 0.229 µM) against Klebsiella pneumoniae [6]. The MIC against Klebsiella pneumoniae [7] was found to be 0.25 µg/mL (≈ 0.457 µM); with Klebsiella pneumoniae [8], 0.125 µg/mL (≈ 0.229 µM); in the assay on Klebsiella pneumoniae [9] it was 16 µg/mL (≈ 29.3 µM); in the assay with Klebsiella pneumoniae [10], 32 µg/mL (≈ 58.5 µM); in the assay on Klebsiella pneumoniae [11], 0.125 µg/mL (≈ 0.229 µM); against Klebsiella pneumoniae [12] it was 0.25 µg/mL (≈ 0.457 µM). Besides, the MIC in the assay on Klebsiella pneumoniae [13] was 32 µg/mL (≈ 58.5 µM); against Klebsiella pneumoniae [14], 0.25 µg/mL (≈ 0.457 µM); with Klebsiella pneumoniae [15], 0.125 µg/mL (≈ 0.229 µM); with Klebsiella pneumoniae [16] it was 0.25 µg/mL (≈ 0.457 µM); with Klebsiella pneumoniae [17] it was 0.125 µg/mL (≈ 0.229 µM).
